From US11214803B2, “Modulators of YAP1 expression” (Ionis Pharmaceuticals, Inc., priority 2019, dated 2022)
Strand notation (5' to 3'): a small letter for the sugar, then the base; units joined by * are phosphorothioate-linked, units joined directly phosphodiester-linked; [ ] holds rarer units or linkages, { } end groups; capitals alone tell only the bases. k = constrained ethyl (cEt); [5mC] = 5-methylcytosine; d = 2'-deoxy (DNA)

Tested on: Yap1 mRNA
Experiment: Antisense inhibition of human Yap1 in A-431 cells by cEt gapmers, single dose (Example 2, RTS4814)
Assay type: cell-based
Method in brief: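 Free uptake, 2,000 nM, ~48 h, A-431 at 5,000 cells/well. Readout: RT-qPCR (RTS4814), RIBOGREEN-normalized, % UTC. 16-mer 3-10-3 cEt gapmers, full PS backbone, all C as 5-methylcytosine.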

[1] = Table 18, A-431 cells, 5,000 cells per well, free uptake, 2,000 nM modified oligonucleotide, approx. 48 hours, RTS4814, normalized to RIBOGREEN, Yap1 mRNA as percent of untreated control
[2] = A-431 cells, 5,000 cells per well, free uptake, 2,000 nM modified oligonucleotide, approx. 48 hours, RTS4814, normalized to RIBOGREEN, Table 4, asterisk (*) = targets amplicon region of primer probe set
[3] = Table 21, Yap1 mRNA, percent of untreated control, 3-10-3 cEt gapmers targeting SEQ ID NO.: 1 and 2
[4] = Table 23, Yap1 mRNA as percent of untreated control, 3-10-3 cEt gapmers, single dose
[5] = Table 20, Yap1 mRNA, percent of untreated control, 3-10-3 cEt gapmers targeting SEQ ID NO.: 1 and 2
[6] = Table 24, Yap1 mRNA as percent of untreated control, 3-10-3 cEt gapmers targeting SEQ ID NO.: 1, and 2
[7] = Table 19, A-431 cells, 5,000 cells per well, free uptake, 2,000 nM modified oligonucleotide, approx. 48 hours, RTS4814, normalized to RIBOGREEN, Yap1 mRNA as percent of untreated control
[8] = Table 25, Yap1 mRNA as percent of untreated control, 3-10-3 cEt gapmers targeting SEQ ID NO.: 1, and 2
[9] = Table 32, Yap1 mRNA, percent of untreated control, 3-10-3 cEt gapmers targeting SEQ ID NO.: 1, and 2
[10] = Table 5, A-431 cells, 5,000 cells per well, free uptake, 2,000 nM modified oligonucleotide, approx. 48 hours, RTS4814, normalized to RIBOGREEN, Yap1 mRNA relative to untreated control cells
[11] = Yap1 mRNA as percent of untreated control, A-431 cells, 3-10-3 cEt gapmers targeting SEQ ID NO.: 1, and 2, Table 31
[12] = Table 6, A-431 cells, 5,000 cells per well, free uptake, 2,000 nM modified oligonucleotide, approx. 48 hours, RTS4814, normalized to RIBOGREEN, Yap1 mRNA relative to untreated control cells

Substance: 1075428 (antisense kT*kA*kT*dA*dT*dA*dA*dG*dG*d[5mC]*dA*dT*d[5mC]*kT*kT*kG) [Compound 1075428]
- YAP1 (% UTC) [1]: 53 % UTC

Substance: 716427 (kA*kG*k[5mC]*d[5mC]*d[5mC]*d[5mC]*d[5mC]*dA*dA*dA*dA*dT*dG*kA*kA*k[5mC]; antisense) [Compound 716427]
- YAP1 (% UTC) [2]: 86 % UTC

Substance: 1074631 (antisense k[5mC]*kA*kT*dA*dG*d[5mC]*dA*dG*d[5mC]*dT*dT*dT*dT*kG*k[5mC]*k[5mC]) [Compound 1074631]
- YAP1 (% UTC) [3]: 9 % UTC

Substance: 1075401 (antisense k[5mC]*kG*kA*dT*dT*dA*dA*dA*dA*d[5mC]*dA*d[5mC]*dT*kG*kG*kT) [Compound 1075401]
- YAP1 (% UTC) [4]: 3 % UTC

Substance: 1074310 (antisense kT*k[5mC]*k[5mC]*dG*d[5mC]*dA*dT*dT*dG*d[5mC]*d[5mC]*dT*dG*kT*kG*kG) [Compound 1074310]
- YAP1 (% UTC) [5]: 100 % UTC

Substance: 716448 (k[5mC]*k[5mC]*kG*dA*d[5mC]*dA*dA*dA*dA*d[5mC]*d[5mC]*dA*dA*k[5mC]*k[5mC]*kA; antisense) [Compound 716448]
- YAP1 (% UTC) [2]: 62 % UTC

Substance: 1076042 (k[5mC]*kT*kT*dA*dA*dG*d[5mC]*dA*dA*dG*dA*dG*dT*k[5mC]*k[5mC]*kA; antisense) [Compound 1076042]
- YAP1 (% UTC) [6]: 35 % UTC

Substance: 1075754 (k[5mC]*kT*kT*dA*dA*dA*dT*dG*dG*d[5mC]*dA*d[5mC]*dA*kG*kT*kT; antisense) [Compound 1075754]
- YAP1 (% UTC) [6]: 20 % UTC

Substance: 1074597 (antisense kA*kG*kT*dA*dT*dT*d[5mC]*dT*dA*dT*d[5mC]*d[5mC]*dA*kG*kG*kG) [Compound 1074597]
- YAP1 (% UTC) [7]: 5 % UTC

Substance: 1075051 (antisense kA*kA*kT*dA*dA*dA*d[5mC]*dA*dA*d[5mC]*d[5mC]*d[5mC]*dA*kA*k[5mC]*kG) [Compound 1075051]
- YAP1 (% UTC) [8]: 56 % UTC

Substance: 1075557 (kT*kA*kT*dT*dA*dA*dG*dG*dT*dG*dG*d[5mC]*dT*kT*kA*k[5mC]; antisense) [Compound 1075557]
- YAP1 (% UTC) [7]: 57 % UTC

Substance: 1075507 (kG*kT*kA*d[5mC]*dA*dA*d[5mC]*d[5mC]*dT*dA*dG*dT*dG*kA*kT*kA; antisense) [compound 1075507]
- YAP1 (% UTC) (Table 33, Yap1 mRNA, percent of untreated control, 3-10-3 cEt gapmers targeting SEQ ID NO.: 1, and 2): 82 % UTC

Substance: 1074217 (antisense kG*kG*kA*dT*dT*dT*dG*dG*dG*d[5mC]*dT*d[5mC]*d[5mC]*kG*kG*k[5mC]) [Compound 1074217]
- YAP1 (% UTC) [4]: 74 % UTC

Substance: 1075400 (antisense kT*kA*kG*d[5mC]*dA*dA*dT*dA*dG*dT*d[5mC]*dA*dG*kG*kT*kA) [Compound 1075400]
- YAP1 (% UTC) (Table 22, Yap1 mRNA as percent of untreated control, 3-10-3 cEt gapmers, single dose): 11 % UTC

Substance: 1075844 (kT*kA*kT*dT*dA*dA*dA*dT*dA*dA*dG*dA*dG*k[5mC]*kT*k[5mC]; antisense) [Compound 1075844]
- YAP1 (% UTC) [1]: 84 % UTC

Substance: 1075664 (antisense kG*k[5mC]*kT*dA*dA*dA*dT*dA*dG*dG*dT*dG*dG*kT*kT*kA) [compound 1075664]
- YAP1 (% UTC) (Yap1 mRNA as percent of untreated control, A-431 cells, 3-10-3 cEt gapmers targeting SEQ ID NO.: 1, and 2, Table 30): 87 % UTC

Substance: 1076394 (k[5mC]*k[5mC]*kT*dA*dA*dA*dT*dT*dA*dG*dA*d[5mC]*dT*kT*kG*kA; antisense) [Compound 1076394]
- YAP1 (% UTC) [6]: 20 % UTC

Substance: 1076402 (antisense k[5mC]*kG*kT*dA*dA*dT*dT*dA*dT*dT*dT*dT*dT*kG*k[5mC]*kT) [compound 1076402]
- YAP1 (% UTC) [9]: 38 % UTC

Substance: 1075050 (antisense kA*k[5mC]*k[5mC]*d[5mC]*dA*dA*d[5mC]*dG*dG*dT*d[5mC]*dA*dT*kG*kT*kT) [Compound 1075050]
- YAP1 (% UTC) [6]: 94 % UTC

Substance: 1075398 (antisense kT*kA*kT*dA*dT*dA*dT*dG*dG*d[5mC]*d[5mC]*d[5mC]*dT*kT*kT*kA) [Compound 1075398]
- YAP1 (% UTC) [5]: 49 % UTC

Substance: 716407 (k[5mC]*kT*kT*dA*dG*dT*d[5mC]*d[5mC]*dA*d[5mC]*dT*dG*dT*k[5mC]*kT*kG; antisense) [Compound 716407]
- YAP1 (% UTC) [10]: 35 % UTC

Substance: 1075474 (kT*kT*kT*dA*dA*dT*dA*dG*dG*d[5mC]*dT*d[5mC]*dT*kA*kT*k[5mC]; antisense) [compound 1075474]
- YAP1 (% UTC) [9]: 68 % UTC

Substance: 1074571 (antisense kT*kA*kT*dG*dA*dA*d[5mC]*d[5mC]*dT*dA*d[5mC]*dT*d[5mC]*kA*k[5mC]*kT) [Compound 1074571]
- YAP1 (% UTC) [8]: 37 % UTC

Substance: 716509 (antisense kT*kA*kT*dA*d[5mC]*d[5mC]*d[5mC]*dA*dA*dT*dT*dT*dT*kG*k[5mC]*kA) [Compound 716509]
- YAP1 (% UTC) [10]: 70 % UTC

Substance: 1075654 (kT*kA*kT*dT*dA*dA*dG*dA*d[5mC]*dG*dA*dA*dT*k[5mC]*k[5mC]*kA; antisense) [Compound 1075654]
- YAP1 (% UTC) [5]: 76 % UTC

Substance: 716529 (antisense k[5mC]*kA*kA*dA*d[5mC]*dT*d[5mC]*dA*dA*dA*dA*dA*dG*kG*kG*kA) [Compound 716529]
- YAP1 (% UTC) [2]: 61 % UTC

Substance: 1076337 (antisense kA*kT*kT*dA*dA*dA*d[5mC]*d[5mC]*dA*dG*dG*dG*dA*k[5mC]*kT*kG) [compound 1076337]
- YAP1 (% UTC) [11]: 25 % UTC

Substance: 716435 (kA*k[5mC]*kA*dA*d[5mC]*dT*dG*dT*dT*dG*dA*dA*d[5mC]*kA*kA*kA; antisense) [Compound 716435]
- YAP1 (% UTC) [12]: 45 % UTC

Substance: 1076196 (kT*kA*kT*d[5mC]*dA*dA*dG*dG*dG*dA*dA*dT*dT*kA*kT*kT; antisense) [Compound 1076196]
- YAP1 (% UTC) [1]: 113 % UTC

Substance: 716369 (k[5mC]*kG*kG*d[5mC]*dG*dG*d[5mC]*dT*dT*dG*dA*dA*dG*kA*kA*kG; antisense) [Compound 716369]
- YAP1 (% UTC) [12]: 94 % UTC

Substance: 716501 (kG*k[5mC]*kA*d[5mC]*dT*dG*dA*dA*dA*dG*dT*dA*d[5mC]*kT*kT*kA; antisense) [Compound 716501]
- YAP1 (% UTC) [12]: 32 % UTC

Substance: 1075762 (kG*kA*kT*dA*dA*dA*dT*dG*dG*dG*dT*dT*dG*kA*kT*kT; antisense) [compound 1075762]
- YAP1 (% UTC) [9]: 20 % UTC

Substance: 1075569 (kG*kT*kA*dG*dA*dA*dA*dG*dG*d[5mC]*dA*dT*dT*kA*kG*kA; antisense) [compound 1075569]
- YAP1 (% UTC) [11]: 45 % UTC

Substance: 1074630 (antisense kA*kG*kA*dG*dA*dT*dT*dT*dT*dA*dT*dG*d[5mC]*k[5mC]*kT*kG) [Compound 1074630]
- YAP1 (% UTC) [5]: 5 % UTC

Substance: 1075505 (kG*k[5mC]*kT*dA*dA*dA*dT*dT*dA*d[5mC]*dA*dG*dA*kG*kG*kT; antisense) [compound 1075505]
- YAP1 (% UTC) [11]: 18 % UTC

Substance: 716536 (antisense kA*kA*kG*dT*dA*dG*dA*dT*d[5mC]*dT*dA*dA*dG*kA*kA*kG) [Compound 716536]
- YAP1 (% UTC) [10]: 94 % UTC

Substance: 1076363 (k[5mC]*kA*kT*dA*dA*dA*dA*dG*dT*d[5mC]*d[5mC]*dA*d[5mC]*kT*kA*kA; antisense) [Compound 1076363]
- YAP1 (% UTC) [8]: 72 % UTC

Substance: 1076561 (kG*kT*kA*dT*dA*d[5mC]*d[5mC]*dA*dA*dG*d[5mC]*dT*dA*k[5mC]*kT*k[5mC]; antisense) [compound 1076561]
- YAP1 (% UTC) [11]: 22 % UTC

Substance: 1076550 (antisense kT*kA*k[5mC]*d[5mC]*dA*dA*d[5mC]*d[5mC]*dT*dG*dT*dA*dT*k[5mC]*k[5mC]*kA) [Compound 1076550]
- YAP1 (% UTC) [5]: 61 % UTC

Substance: 1074891 (antisense kT*kG*kA*dA*dG*dT*dT*dT*dA*dG*d[5mC]*d[5mC]*dT*kG*kA*kA) [Compound 1074891]
- YAP1 (% UTC) [8]: 31 % UTC

Substance: 1074482 (kT*kA*kA*dT*dA*dT*dG*dG*dT*d[5mC]*dA*dT*dT*kT*kG*k[5mC]; antisense) [compound 1074482]
- YAP1 (% UTC) [9]: 12 % UTC

Substance: 716471 (k[5mC]*k[5mC]*kT*dA*d[5mC]*dT*d[5mC]*dA*d[5mC]*dT*dG*dA*dA*kT*kT*k[5mC]; antisense) [Compound 716471]
- YAP1 (% UTC) [12]: 48 % UTC

Substance: 1076425 (k[5mC]*kG*kG*dG*dA*dA*dA*dA*dT*dT*d[5mC]*dT*dG*kG*kA*kG; antisense) [Compound 1076425]
- YAP1 (% UTC) [4]: 32 % UTC

Substance: 1076261 (k[5mC]*k[5mC]*k[5mC]*d[5mC]*dA*dA*d[5mC]*dA*dA*dG*dT*dT*d[5mC]*k[5mC]*kT*kG; antisense) [Compound 1076261]
- YAP1 (% UTC) [7]: 39 % UTC

Substance: 1076487 (antisense kG*kT*kA*d[5mC]*dG*dA*dA*dA*d[5mC]*dG*dA*dA*dA*k[5mC]*kG*kG) [Compound 1076487]
- YAP1 (% UTC) [3]: 21 % UTC
